# From patent US20240051952A1, “HMOX1 INDUCERS” (Mitobridge Inc., priority 2019, published 2024)
# “Also recorded” adds a separate entry of the source.
# How the values were obtained:
# HbSS Townes sickle mice [1] = assay: Heme-induced vaso-occlusion (stasis) in HbSS Townes sickle mice; assay type: in vivo, mouse; conditions: 1 h after heme infusion
# Description: Townes-SS mice were gavaged once daily with Vehicle or the compound of Example 17 for 8 days. After the last gavage dorsal skin-fold chambers were implanted on the mice and 20-22 flowing venules were selected and mapped in the subcutaneous skin using intravital microscopy. Mice were then infused via the tail vein with Panhematin (3.2 μmols heme/kg body weight). One hour after infusion each venule was re-examined for microvascular stasis (no flow) and data are expressed as % stasis. Stasis values are means+SD. One-Way ANOVA with Dunnett's Multiple comparison to Vehicle ****P<0.0001
# (§1) Dosing Scheme of HMOX Inducers to HbSS Townes Sickle Mice
# (§2) HbSS Townes sickle mice were oral gavaged once daily with Vehicle or the compound of Example 17 listed below for 8 days. To minimize experimental inconsistency, fresh formulation was prepared every day and vortexed prior to drawing test article into syringe for each dosing, and dosing was performed by the same individual throughout the day. The last-day dose was administered by oral gavage 4 hours prior to hemin infusion described below. • 1. Vehicle (0.5% w/v Tween 80 in 0.45% w/v methyl cellulose) • 2. the compound of Example 17 (10 mg/kg PO dosing) • 3. the compound of Example 17 (25 mg/kg PO dosing) • 4. the compound of Example 17 (50 mg/kg PO dosing)
# Measurement of Vaso-Occlusion (Stasis)
# Male and female sickle mice, approximately 12 weeks of age, were weighed before surgery. Animals were anesthetized with a mixture of ketamine (106 mg/kg) and xylazine (7.2 mg/kg) and dorsal skin-fold chambers (DSFCs) were surgically implanted. On the same day anesthetized mice were placed on a special intravital microscopy stage, and 20-22 flowing subcutaneous venules in the DSFC window were selected and mapped. After venule selection and mapping, hemin chloride (2.677 mM; Frontier Scientific), dissolved in sterile saline containing sodium carbonate (11.36 mM; Sigma-Aldrich) and D-sorbitol (9.59 mM; Sigma-Aldrich), was filtered (0.22 μm), diluted 1:10 in sterile saline (267.7 μM hemin, final) and infused into the tail veins of mice (0.012 ml/g, 3.2 μmols heme/kg body weight). All of the selected venules were re-examined at 1 h after hemin infusion, and the number of static (no flow) venules was counted and expressed as percent stasis. Four hours after hemin infusion, mice were euthanized in a CO2 atmosphere and the liver, spleen and kidneys were removed, flash frozen, and stored at −85° C.
# HbSS Townes sickle mice [2] = assay: F-cells in HbSS Townes sickle mice; assay type: in vivo, mouse
# Description: Blood smears were made using heparinized whole blood for F-cells staining. Stained F-cells and total red blood cells were counted on the blood smears in four fields; mean=77 red blood cells/field. F-cells are expressed as a percentage of total red blood cells. Values are means+SD. One-Way ANOVA with Dunnett's Multiple comparison to Vehicle **p≤0.01, ***p≤0.001, ****p≤0.0001
# as §1
# as §2, with “Vehicle (0.5% w/v Tween 80 in 0.45% w/v methyl cellulose) • 2. the compound of Example 17 (10 mg/kg PO dosing) • 3. the compound of Example 17 (25 mg/kg PO dosing) • 4. the compound of Example 17 (50 mg/kg PO dosing)” left out
# F-cells were stained on whole blood smears by the Kleihauer-Betke method using a fetal cell stain kit (Simmler) according to the manufacturer's instructions. F-cells and total erythrocytes were counted in 4 separate microscopic fields at 100× magnification for each mouse. The F-cells were expressed as a percentage of total erythrocytes (i.e., red blood cells). […]
# VCAM-1 = VCAM-1 gene expression in TNFα-stimulated primary human endothelial cells; assay type: cell-based; conditions: HPAEC
# Description: Example 150. Gene Expression in Primary Human Endothelial Cells
# Inflammatory conditions in endothelial cells increase expression of adhesion molecules, such as VCAM-1, ICAM-1 and E-selectin through NF-kB signaling. HMOX1 −/− endothelial cells show increased expression of VCAM-1 in response to TNF stimulation, as compared to HMOX +/+endothelial cells. See Seldon et al., J Immunol Dec. 1, 2007, 179 (11) 7840-7851.
# Primary human pulmonary artery endothelial cells (HPAEC) (Lonza #CC-2530) were seeded in 12-well plates (TrueLine #TR5001) at 200 k cells per well and placed at 37° C. in 5% CO2. 18-24 hr post seeding, cells were treated with the compound of Example 17 via media change. 24 hr post treatment with the compound, cells were treated with 10 ng/mL TNFα (Invitrogen #PHC3015 in H2O) alone or with the compound of Example 17. […] 20ng cDNA was mixed with water, iQ™ SYBR® Green Supermix (BioRad #170-8886), and 300 nM primer (IDT #NM_001078) for a total 10ul reaction and loaded into 384-well white qPCR plates and subsequently analyzed using BioRad CFX384. […] To calculate fold change, the ΔCt on a per sample basis was calculated as Ct (Gene of interest)—Ct (Average of reference genes). The ΔΔCt was then calculated as ΔCt (experimental sample)—Average ΔCt (control group). […]
# [3] = 10, 25, 50 mg/kg PO once daily 8 days
compound,measurement,setting,value
"Cn1c(Nc2nc3ccccc3o2)nc2cc(C(=O)NCCOCCO)ccc21 [Example 17, 2-(benzo[d]oxazol-2-ylamino)-N-(2-(2-hydroxyethoxy)ethyl)-1-methyl-1H-benzo[d]imidazole-5-carboxamide]",stasis,HbSS Townes sickle mice [1]; 10 mg/kg PO once daily 8 days,~17%
same,stasis,HbSS Townes sickle mice [1]; 25 mg/kg PO once daily 8 days,~12%
same,stasis,HbSS Townes sickle mice [1]; 50 mg/kg PO once daily 8 days,~5%
same,microvascular stasis vs Vehicle,HbSS Townes sickle mice [1]; [3],significantly reduced; also recorded: dose responsively inhibit microvascular stasis
same,percent F-cells vs vehicle,HbSS Townes sickle mice [2]; [3],significantly increased; also recorded: percentage of F-cells increase
same,percent F-cells,"HbSS Townes sickle mice [2]; all doses tested (10, 25, 50 mg/kg PO, 8 days), % of total red blood cells",55-70%
same,TNF-α mediated endothelial cell activation (VCAM-1 expression),"VCAM-1; 24 hr pre-treatment, 10 ng/mL TNFα 4 hours",reduced this TNF-α mediated endothelial cell activation
same,"toxicity, visual inspection of cells",VCAM-1; after 4 hours of TNFα treatment,no toxicity being noted
